Experimental data taken from the NIST ThermoML archive (doi:10.1016/j.jct.2016.04.003).

Experiment: xn = mol fraction of the nth substance listed
Details: for surface tension liquid-gas: Drop volume; for viscosity / speed of sound / mass density: 99 kPa, Liquid; for viscosity: Capillary tube (Ostwald / Ubbelohde) method; for speed of sound: Frequency=3 MHz, Sing-around technique in a fixed-path interferometer; for mass density: Vibrating tube method

CCCC[n+]1ccccc1.F[B-](F)(F)F [1-butylpyridinium tetrafluoroborate] + O
Details	mass density [kg/m3]	speed of sound [m/s]	surface tension liquid-gas [mN/m]	viscosity [mPa·s]
313.15 K, x1 = 0.0115	–	–	55.5	–
313.15 K, x1 = 0.0165	1021.2	1560	–	–
313.15 K, x1 = 0.0185	–	–	53	–
313.15 K, x1 = 0.0271	–	–	51.6	–
313.15 K, x1 = 0.0372	–	–	50.3	–
313.15 K, x1 = 0.0379	1049.2	1576.8	–	–
313.15 K, x1 = 0.0456	–	–	49.9	–
313.15 K, x1 = 0.047	–	–	–	0.845
313.15 K, x1 = 0.0863	1089.2	1590.3	–	–
313.15 K, x1 = 0.0942	–	–	48.5	–
313.15 K, x1 = 0.095	–	–	–	1.16
313.15 K, x1 = 0.101	1097.8	1591.9	–	–
313.15 K, x1 = 0.134	1113.3	1593.4	–	–
313.15 K, x1 = 0.1907	–	–	47.9	–
313.15 K, x1 = 0.2001	–	–	–	1.741
313.15 K, x1 = 0.243	1144.4	1590.6	–	–
313.15 K, x1 = 0.2846	–	–	47.7	–
313.15 K, x1 = 0.289	1152.9	1587.9	–	–
313.15 K, x1 = 0.2912	–	–	–	2.929
313.15 K, x1 = 0.34	–	–	47.6	–
313.15 K, x1 = 0.3456	1161.3	1585	–	–
313.15 K, x1 = 0.3866	–	–	47.6	–
313.15 K, x1 = 0.4015	–	–	–	5.101
313.15 K, x1 = 0.4217	1170.1	1580.8	–	–
313.15 K, x1 = 0.4807	–	–	–	8.106
313.15 K, x1 = 0.486	–	–	47	–
313.15 K, x1 = 0.5485	1180.9	1575.2	–	–
313.15 K, x1 = 0.5777	–	–	46.6	–
313.15 K, x1 = 0.5815	–	–	–	11.33
313.15 K, x1 = 0.6029	1184.6	1573.3	–	–
313.15 K, x1 = 0.6641	–	–	–	15.02
313.15 K, x1 = 0.6943	–	–	46.2	–
313.15 K, x1 = 0.7232	1191.6	1569.9	–	–
313.15 K, x1 = 0.7779	–	–	45.9	–
313.15 K, x1 = 0.7855	–	–	–	26.33
313.15 K, x1 = 0.8005	1195.3	1568.4	–	–
313.15 K, x1 = 0.835	–	–	45.7	–
313.15 K, x1 = 0.8575	1197.8	1567.3	–	–
313.15 K, x1 = 0.8875	–	–	–	44.04
313.15 K, x1 = 0.925	–	–	45.7	–
313.15 K, x1 = 0.9305	–	–	–	53.39
313.15 K, x1 = 0.9315	1200.9	1566.3	–	–
313.15 K, x1 = 0.9705	–	–	–	63.74
313.15 K, x1 = 1	1203.7	1565.6	45.7	71.1
323.15 K, x1 = 0.0115	–	–	54.5	–
323.15 K, x1 = 0.0165	1016.5	1561.9	–	–
323.15 K, x1 = 0.0185	–	–	52	–
323.15 K, x1 = 0.0271	–	–	50.5	–
323.15 K, x1 = 0.0372	–	–	49.5	–
323.15 K, x1 = 0.0379	1043.9	1571.9	–	–
323.15 K, x1 = 0.0456	–	–	48.7	–
323.15 K, x1 = 0.047	–	–	–	0.708
323.15 K, x1 = 0.0863	1083	1577.9	–	–
323.15 K, x1 = 0.0942	–	–	47.7	–
323.15 K, x1 = 0.095	–	–	–	0.867
323.15 K, x1 = 0.101	1091.5	1577.7	–	–
323.15 K, x1 = 0.134	1106.6	1576.8	–	–
323.15 K, x1 = 0.1907	–	–	47.1	–
323.15 K, x1 = 0.2001	–	–	–	1.418
323.15 K, x1 = 0.243	1137.2	1569.9	–	–
323.15 K, x1 = 0.2846	–	–	46.9	–
323.15 K, x1 = 0.289	1145.6	1566.7	–	–
323.15 K, x1 = 0.2912	–	–	–	2.295
323.15 K, x1 = 0.34	–	–	46.6	–
323.15 K, x1 = 0.3456	1153.8	1562.9	–	–
323.15 K, x1 = 0.3866	–	–	46.4	–
323.15 K, x1 = 0.4015	–	–	–	3.991
323.15 K, x1 = 0.4217	1162.6	1558.9	–	–
323.15 K, x1 = 0.4807	–	–	–	5.631
323.15 K, x1 = 0.486	–	–	46.1	–
323.15 K, x1 = 0.5485	1173.4	1553.2	–	–
323.15 K, x1 = 0.5777	–	–	45.8	–
323.15 K, x1 = 0.5815	–	–	–	7.929
323.15 K, x1 = 0.6029	1177.2	1551.3	–	–
323.15 K, x1 = 0.6641	–	–	–	10.77
323.15 K, x1 = 0.6943	–	–	45.6	–
323.15 K, x1 = 0.7232	1184.2	1548	–	–
323.15 K, x1 = 0.7779	–	–	45.3	–
323.15 K, x1 = 0.7855	–	–	–	18.47
323.15 K, x1 = 0.8005	1188	1546.4	–	–
323.15 K, x1 = 0.835	–	–	45.1	–
323.15 K, x1 = 0.8575	1190.6	1545.2	–	–
323.15 K, x1 = 0.8875	–	–	–	27.32
323.15 K, x1 = 0.925	–	–	45.1	–
323.15 K, x1 = 0.9305	–	–	–	34.39
323.15 K, x1 = 0.9315	1193.8	1544.1	–	–
323.15 K, x1 = 0.9705	–	–	–	40.41
323.15 K, x1 = 1	1196.7	1543.5	45.1	45.56
